The target in the test is T1, Chymase (Homo sapiens, UniProt P23946).
T1 sequence (P23946 22-247): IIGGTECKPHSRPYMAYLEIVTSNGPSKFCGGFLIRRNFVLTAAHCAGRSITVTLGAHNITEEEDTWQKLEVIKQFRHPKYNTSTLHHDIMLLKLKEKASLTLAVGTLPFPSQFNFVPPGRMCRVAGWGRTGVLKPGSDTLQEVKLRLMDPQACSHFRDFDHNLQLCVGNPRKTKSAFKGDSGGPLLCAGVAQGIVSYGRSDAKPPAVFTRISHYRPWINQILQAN
Put plainly: In vitro assay for inhibition of Chymase (rhodamine 110 peptide substrate, fluorescence). In kind it is biochemical. Particulars: 500 pM chymase, 100 nM substrate, 100 μM TCEP, 1% DMSO, 28° C., 1 hour. On the procedure: IN VITRO ASSAY FOR INHIBITION OF CHYMASE
Chymase assays were performed in a total volume of 15 μL in Corning black opaque 384-well microtiter plates with a non-binding surface (Corning, N.Y.). The assay buffer was comprised of 20 mM Tris HCl pH 8.0, 50 mM NaCl, 0.01% CHAPS. The test compounds were serially diluted 3-fold with neat DMSO in a 96-well polypropylene plate from a 10 mM DMSO stock to give the 10 point dose response curve. 3 μL of the resulting DMSO solution were transferred to a 384-well polypropylene plate in duplicate, and 37 μL of assay buffer was added. Chymase was added to the assay plate in 3 uL of assay buffer followed by 2 uL of the appropriate compound dilution using a PlateMate Plus (Matrix Technologies Corp., Hudson, N.H.). The reaction was initiated by the addition of 10 uL rhodamine 110, bis-(succinoyl-L-alanyl-L-alanyl-L-prolyl-L-phenylalanylamide) (American Peptides, Sunnyvale, Calif.) in assay buffer containing 150 μM tris(2-carboxyethyl)phosphine (TCEP, Pierce Chemical, Rockford, Ill.) using a Multidrop (Thermo Electron Corp., Waltham, Mass.). Final assay concentrations were 500 pM chymase, 100 nM substrate, 100 μM TCEP, and 1% DMSO. The plates were incubated at 28° C. and 80% humidity for 1 hour, at which time the fluorescence was read on a Viewlux 1430 Microplate Imager (Perkin Elmer Life Sciences, Boston, Mass.) with 485 nm excitation, 530 nm emission, and a fluorescein dichroic mirror. The percentage of control values were calculated relative to assay blanks containing complete reaction minus chymase and a 100% control containing assay buffer with 1% DMSO in place of compound. IC50 values were obtained by fitting the data using XLFit4 (IDBS Software).
Regarding `Cc1cc(C)c2c(Cn3c(=O)n([C@H](CC(=O)O)c4ccc(F)cc4)c4nc(C(N)=O)ccc43)cn(C)c2c1` [(R)-3-[5-Carbamoyl-2-oxo-1-(1,4,6-trimethyl-1H-indol-3-ylmethyl)-1,2-dihydro-imidazo[4,5-b]pyridin-3-yl]-3-(4-fluoro-phenyl)-propionic acid], the IC50 worked out at 0.395 nM.
The compound `Cc1cccc2c1c(Cn1c(=O)n([C@H](CC(=O)O)c3ccc(F)cc3)c3nc(C#N)ccc31)cn2C` [(R)-3-[5-Cyano-1-(1,4-dimethyl-1H-indol-3-ylmethyl)-2-oxo-1,2-dihydro-imidazo[4,5-b]pyridin-3-yl]-3-(4-fluoro-phenyl)-propionic acid] registered an IC50 of 0.245 nM.
Consider `Cc1cccc2c1c(Cn1c(=O)n([C@H](CC(=O)O)c3ccccc3)c3nc(C#N)ccc31)cn2C` [(R)-3-[5-Cyano-1-(1,4-dimethyl-1H-indol-3-ylmethyl)-2-oxo-1,2-dihydro-imidazo[4,5-b]pyridin-3-yl]-3-phenyl-propionic acid], for which the IC50 turned out to be 1.5 nM.
For `Cc1cc(C)c2c(Cn3c(=O)n([C@H](CC(=O)O)c4ccc(F)cc4)c4nc(C#N)ccc43)cn(C)c2c1` [(R)-3-[5-Cyano-2-oxo-1-(1,4,6-trimethyl-1H-indol-3-ylmethyl)-1,2-dihydro-imidazo[4,5-b]pyridin-3-yl]-3-(4-fluoro-phenyl)-propionic acid], the IC50 came out at 0.23 nM.
The value for `Cc1cc(C)c2c(Cn3c(=O)n([C@H](CC(=O)O)c4ccccc4)c4nc(C#N)ccc43)cn(C)c2c1` [(R)-3-[5-Cyano-2-oxo-1-(1,4,6-trimethyl-1H-indol-3-ylmethyl)-1,2-dihydro-imidazo[4,5-b]pyridin-3-yl]-3-phenyl-propionic acid] was 0.6 nM.
The value for `COc1ccc2c(n1)n([C@H](CC(=O)O)c1ccccc1)c(=O)n2Cc1cn(C)c2cc(C)cc(C)c12` [(R)-3-[5-Methoxy-2-oxo-1-(1,4,6-trimethyl-1H-indol-3-ylmethyl)-1,2-dihydro-imidazo[4,5-b]pyridin-3-yl]-3-phenyl-propionic acid] was 0.605 nM; that for `Cc1cccc2c1c(Cn1c(=O)n([C@H](CC(=O)O)c3ccccc3)c3nc(C(C)C)ncc31)cn2C` [(R)-3-[7-(1,4-Dimethyl-1H-indol-3-ylmethyl)-2-isopropyl-8-oxo-7,8-dihydro-purin-9-yl]-3-phenyl-propionic acid] was 12.6 nM; that for `CCC[C@@H](CC(=O)O)n1c(=O)n(Cc2cn(C)c3cccc(C)c23)c2cccnc21` [(S)-3-[1-(1,4-Dimethyl-1H-indol-3-ylmethyl)-2-oxo-1,2-dihydro-imidazo[4,5-b]pyridin-3-yl]-hexanoic acid] was 4.93 nM.
Regarding `CCC[C@@H](CC(=O)O)n1c(=O)n(Cc2cn(C)c3cccc(C)c23)c2ccc(C)nc21` [(S)-3-[1-(1,4-Dimethyl-1H-indol-3-ylmethyl)-5-methyl-2-oxo-1,2-dihydro-imidazo[4,5-b]pyridin-3-yl]-hexanoic acid], the IC50 was 4.48 nM.
The value for `CCC[C@@H](CC(=O)O)n1c(=O)n(Cc2cn(C)c3cccc(C)c23)c2cc(C)cnc21` [(S)-3-[1-(1,4-Dimethyl-1H-indol-3-ylmethyl)-6-methyl-2-oxo-1,2-dihydro-imidazo[4,5-b]pyridin-3-yl]-hexanoic acid] was 3.46 nM; that for `CCC[C@@H](CC(=O)O)n1c(=O)n(Cc2nsc3cc(C)cc(C)c23)c2ccc(C)nc21` [(S)-3-[1-(4,6-Dimethyl-1,2-benzisothiazol-3-ylmethyl)-5-methyl-2-oxo-1,2-dihydro-imidazo[4,5-b]pyridin-3-yl]-hexanoic acid] was 3.4 nM.
The value for `CCC[C@@H](CC(=O)O)n1c(=O)n(Cc2cn(C)c3cccc(C)c23)c2ncccc21` [(S)-3-[3-(1,4-Dimethyl-1H-indol-3-ylmethyl)-2-oxo-2,3-dihydro-imidazo[4,5-b]pyridin-1-yl]-hexanoic acid] was 8.86 nM.
The compound `CCC[C@@H](CC(=O)O)n1c(=O)n(Cc2cn(C)c3cccc(C)c23)c2cnccc21` [(S)-3-[3-(1,4-Dimethyl-1H-indol-3-ylmethyl)-2-oxo-2,3-dihydro-imidazo[4,5-c]pyridin-1-yl]-hexanoic acid] gave a half-maximal inhibitory concentration (IC50) of 18.9 nM.
The value for `CCC[C@@H](CC(=O)O)n1c(=O)n(Cc2cn(C)c3cc(C)cc(C)c23)c2ccc(C)nc21` [(S)-3-[5-Methyl-2-oxo-1-(1,4,6-trimethyl-1H-indol-3-ylmethyl)-1,2-dihydro-imidazo[4,5-b]pyridin-3-yl]-hexanoic acid] was 0.81 nM; that for `CCC[C@@H](CC(=O)NS(=O)(=O)CC)n1c(=O)n(Cc2cn(C)c3cccc(C)c23)c2cccnc21` [Ethanesulfonic acid {(S)-3-[1-(1,4-dimethyl-1H-indol-3-ylmethyl)-2-oxo-1,2-dihydro-imidazo[4,5-b]pyridin-3-yl]-hexanoyl}-amide] was 7.48 nM.
`CCC[C@@H](CC(=O)NS(C)(=O)=O)n1c(=O)n(Cc2cn(C)c3cccc(C)c23)c2cccnc21` [N-{(S)-3-[1-(1,4-Dimethyl-1H-indol-3-ylmethyl)-2-oxo-1,2-dihydro-imidazo[4,5-b]pyridin-3-yl]-hexanoyl}-methanesulfonamide] came in with an IC50 of 11.8 nM.

What is called IC50 is the concentration that gives 50% inhibition.

The record behind these values is US9062056B2, “Aza-benzimidazolone Chymase inhibitors” (Boehringer Ingelheim International GmbH, priority 2008, dated 2015).
